Measured values: the NIST ThermoML archive (doi:10.1016/j.fluid.2018.11.010)

Assay: wn = mass fraction of the nth substance listed
Conditions: 298.15 K, Wilhelmy plate method

**Q.** For `CC(=O)[O-].CCCCCCn1cc[n+](C)c1` [3-hexyl-1-methylimidazolium acetate] + O, which surface tension liquid-gas (w1 = 7e-05) is on record?
**A.** 66.55 mN/m

**Q.** And the surface tension liquid-gas (w1 = 0.00069)?
**A.** 60.77 mN/m

**Q.** What about the surface tension liquid-gas (w1 = 0.01013) of the same compound?
**A.** 51.97 mN/m

**Q.** What about the surface tension liquid-gas (w1 = 0.3005) of the same compound?
**A.** 41 mN/m

**Q.** What about the surface tension liquid-gas (w1 = 1) of the same compound?
**A.** 36 mN/m
